{"source": "patent US7485427B1", "about": "“Photocleavable bioreactive agents” (The Trustees of Boston University, priority 1994, dated 2009)", "origin": "cited, not measured here", "molecular_target": "avidin (Gallus gallus, UniProt P02701)", "sequence (P02701 25-152)": "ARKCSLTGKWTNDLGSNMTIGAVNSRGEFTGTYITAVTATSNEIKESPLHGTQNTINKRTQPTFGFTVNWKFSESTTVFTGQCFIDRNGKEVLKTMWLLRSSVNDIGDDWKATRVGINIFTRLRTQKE", "details": "binding between avidin and biotin"}
{"smiles": "O=C(O)CCCC[C@@H]1SC[C@@H]2NC(=O)N[C@@H]21", "note": "[biotin]", "values": [{"measurement": "association constant (Ka)", "result": "about 10^15 M^−1"}]}
